Data on 13 compounds can be found in patent US20250084087A1, “BICYCLIC HETEROCYCLES AS MRGPRX2 ANTAGONISTS” (Incyte Corporation, priority 2023, published 2025).

Type in all cases: cell-based
For test [1], the target named is T1, MRGPRX2 (Homo sapiens, UniProt Q96LB1).
T1 sequence (Q96LB1 1-330): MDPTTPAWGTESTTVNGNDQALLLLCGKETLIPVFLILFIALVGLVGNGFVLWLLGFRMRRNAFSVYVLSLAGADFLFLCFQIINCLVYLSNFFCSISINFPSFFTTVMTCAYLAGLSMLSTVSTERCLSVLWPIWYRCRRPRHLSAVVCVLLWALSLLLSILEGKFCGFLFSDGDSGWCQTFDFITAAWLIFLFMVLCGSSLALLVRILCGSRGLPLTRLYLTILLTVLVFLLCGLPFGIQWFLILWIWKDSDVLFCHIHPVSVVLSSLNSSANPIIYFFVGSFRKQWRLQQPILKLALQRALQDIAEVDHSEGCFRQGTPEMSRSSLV
The test is described as follows: MRGPRX2 FLIPR calcium mobilization assay. Particulars: CHO-K1 cells stably expressing human MRGPRX2; Ca2+ release; agonist Cortistatin-14 at EC80. On the set-up: host or cells: CHO-K1. On the procedure: Example A. MRGPRX2 FLIPR Calcium Mobilization Assay
Chinese hamster ovary (CHO-K1) cells stably expressing human MRGPRX2 were purchased from Genescript (Piscataway, NJ). The cells were maintained in culture medium (Ham's F-12K) containing 10% (v/v) FBS, 200 μg/mL Zeocin, 100 units/mL penicillin G and 100 μg/mL streptomycin (Life Technologies, Carlsbad, CA). For the assay, the cells were harvested and resuspended with culture medium without Zeocin before plating at 8000 cells per well in 20 μL in 384-well black clear bottom cell culture plates (VWR, Radnor, PA). After 24 hour culture at 37° C. and 5% CO2, the cells were loaded with 20 μL/well of calcium dye (FLIPR Calcium 6 Assay Kit, Molecular Devices, San Jose, CA) diluted in loading buffer (1× Hank's Balanced Salt Solution (HBSS), 5 mM probenecid, 20 mM 4-(2-hydroxyethyl)-1-piperazineethanesulfonic acid (HEPES), pH 7.4, VWR, Radnor, PA) followed with 45 min. incubation at 37° C. and 40 min. at r.t. in the dark. Cells were then treated with the addition of 10 uL/well test compounds with a range of increasing concentrations diluted in the assay buffer (1×HBSS, 20 mM HEPES, pH 7.4, VWR, Radnor, PA) with FLIPR Penta (Molecular Devices. San Jose, CA) and incubated for 30 min. at r.t. Ca^2+ release was measured with FLIPR Penta with 10 seconds basal fluorescence measurement, then 12.5 μL of 5× agonist Cortistatin-14 (Tocris, Minneapolis, MN) at final concentration corresponding to the EC80 were added followed with continued fluorescence signal monitoring for an additional 110 seconds. The base line adjusted (median of first 10s base line) max value of the Relative Fluorescence Unit (RFU) was plotted against compound concentrations. Wells with no compound were served as the positive controls, and wells with high concentration of reference antagonist were used as negative controls. IC50 curves were globally fitted with 3- or 4-parameter Hill equation in a Genedata Screener (Genedata Basel, Switzerland).

Test [2] concerns the target T1, MRGPRX2. The test is described as follows: MRGPRX2 β-Arrestin recruitment assay (PathHunter). On the set-up: host or cells: CHO-K1 (PathHunter). Particulars: PathHunter CHO-K1 MRGPRX2 β-Arrestin cell line; agonist Cortistatin 14 0.25 μM. The source says:
Example C: MRGPRX2 P-Arrestin Assay
This assay measures compound inhibition of P-Arrestin recruitment, which is part of the G protein-independent pathway that results from the ligand-activated GPCR phosphorylation by specific GPCR kinases. The PathHunter CHO-K1 MRPGRX2 B-Arrestin Cell line stably expressing ProLink tagged MRGPRX2 and Enzyme Acceptor Tagged B-Arrestin was purchased from Eurofins DiscoverX, (Fremont, CA).
The cells were maintained in culture medium from the Europhins DiscoverX Cell Culture Kit-107 which includes FBS, hygromycin B and G418. For the assay, the cells were harvested and were resuspended with Cell Plating Reagent 2 (Eurofins DiscoverX). Cells were added 10000 cells in 25 μL/well to a 384-well black cell culture plate (Greiner VWR, Radnor, PA) which contained 125 nL/well of compound at a selected serially diluted concentration range or DMSO. The plate was incubated at 37° C. with 5% CO2 for 1 h. 2 μL/well of agonist Cortistatin 14 was diluted in Protein Dilution Buffer, (Eurofins DiscoverX) for a final concentration of 0.25 μM, was added and the plate was incubated at 37° C. with 5% CO2 for 90 min. 14 μL/well of Detection Reagent Mix (PathHunter Detection Kit, Eurofins DiscoverX) was added to the plates and further incubated for 1 h in the dark. Plates were read on the PHERAstar microplate reader (BMG Labtech Cary, NC) measuring luminescence 0.1 to 1 second per well. Data was normalized using DMSO only wells and wells with high concentration of reference antagonist as controls. Compound IC50 curves were globally fitted with 3- or 4-parameter Hill equation in a Genedata Screener (Genedata Basel, Switzerland).
For orientation: Activated receptors often draw arrestin, which recruitment assays turn into a signal.

For test [3], the target named is T1, MRGPRX2. In words: MRGPRX2 IP1 HTRF assay. Set-up: host or cells: CHO-K1. Particulars: CHO-K1 cells stably expressing human MRGPRX2; IP1 accumulation; agonist Cortistatin 14 1 μM. From the text: Example B: MRGPRX2 IP1 HTRF Assay
This assay measures compound inhibition of myo-Inositol 1 phosphate (IP1) accumulation in CHO-K1 cells. Chinese hamster ovary (CHO-K1) cells stably expressing human MRGPRX2 were purchased from GenScript (Piscataway, NJ).
For the HTRF IP1 determination, an IP-One GqKit (Perkin Elmer Cisbio, Waltham, MA), which includes all reagents and buffers in this protocol, was used. The cells were maintained in culture medium (Ham's F-12K) containing 10% (v/v) FBS, and 200 μg/mL Zeocin. For the assay, the cells were harvested and resuspended in culture medium with 2% FBS and without Zeocin, then were passed through a 40 μm filter. Cells were added at 20000 cells in a 5 μL/well to a 384-well white small volume cell culture plate (Greiner VWR, Radnor, PA) which contained 50 nL/well of test compound serially diluted at a selected concentration range in DMSO. 5 μL/well of prepared 2× Stimulation Buffer2 was then added to plates and was incubated at 37° C. with 5% CO2 for 1 h. 5 μL/well of agonist Cortistatin 14 (Bio-TechneR&D Systems, Minneapolis, MN) in 1× Stimulation Buffer2, for a 1 μM final concentration, was then added to plates and incubated at 37° C. with 5% CO2 for 1 h. 6 μL/well of 1:20 diluted Detection Reagent Mix (d2 and Cryptate) was added to the plates and incubated for 1 h in the dark. Plates were read on the PHERAstar microplate reader (BMG Labtech Cary, NC) to determine the HTRF ratio of the acceptor and donor emission signals. The IP1 concentrations were calculated from a standard curve following the IP-One GQ kit instructions. Wells with DMSO only and wells with high concentration of reference antagonist were used as controls for normalization. Compound IC50 curves were globally fitted with 3- or 4-parameter Hill equation in a Genedata Screener (Genedata Basel, Switzerland).
On the technique in general: Time-resolved FRET reads energy transfer from a long-lived donor to a nearby acceptor.

In the case of `OC1CCC(CNc2cc(C(F)(F)F)nc3cc(Br)nn23)(c2ccccc2)C1` (racemic) [Example 84, 3-(((2-Bromo-5-(trifluoromethyl)pyrazolo[1,5-a]pyrimidin-7-yl)amino)methyl)-3-phenylcyclopentan-1-ol], the IC50 at MRGPRX2 [1] and at MRGPRX2 [2] was 0.1 to 100 nM throughout.
For the compound `Cc1cc2nc(I)cc(NCC3(c4ccccc4)CCOC3)n2n1` (centres unmarked) [Example 78, 5-Iodo-2-methyl-N-((3-phenyltetrahydrofuran-3-yl)methyl)pyrazolo[1,5-a]pyrimidin-7-amine], the IC50 on MRGPRX2 [1] lay within 100 to 1000 nM.
Same read-out and setting: in the case of `N#Cc1cc2nc(C(F)(F)F)cc(NCC3(n4cccn4)CN(S(N)(=O)=O)C3)n2n1` [Example 95, 3-(((2-Cyano-5-(trifluoromethyl)pyrazolo[1,5-a]pyrimidin-7-yl)amino)methyl)-3-(1H-pyrazol-1-yl)azetidine-1-sulfonamide] it was 0.1 to 100 nM.
Take `O=C(N[C@H]1CC[C@H](O)CC1)N1CC(CNc2cc(C(F)(F)F)nc3cc(C(F)(F)F)nn23)(c2ccc(F)c(F)c2)C1` [Example 100, 3-(((2,5-Bis(trifluoromethyl)pyrazolo[1,5-a]pyrimidin-7-yl)amino)methyl)-3-(3,4-difluorophenyl)-N-((1r,4r)-4-hydroxycyclohexyl)azetidine-1-carboxamide]: the IC50 on MRGPRX2 [3] and at MRGPRX2 [2] was 0.1 to 100 nM each time.
For the compound `[2H]C([2H])([2H])NC(=O)N1CC(CNc2cccc3nc(C(F)(F)F)cn23)(c2ccc(F)cc2)C1` [Example 101, 3-(4-Fluorophenyl)-N-(methyl-d3)-3-(((2-(trifluoromethyl)imidazo[1,2-a]pyridin-5-yl)amino)methyl)azetidine-1-carboxamide], the IC50 at MRGPRX2 [3] and on MRGPRX2 [2] was 0.1 to 100 nM in each case.
For `O=C(N[C@H]1CC[C@H](O)CC1)N1CC(CNc2cccc3nc(C(F)(F)F)cn23)(c2ccc(F)cc2)C1` [Example 102, 3-(4-Fluorophenyl)-N-((1r,4r)-4-hydroxycyclohexyl)-3-(((2-(trifluoromethyl)imidazo[1,2-a]pyridin-5-yl)amino)methyl)azetidine-1-carboxamide], the IC50 at MRGPRX2 [3] and on MRGPRX2 [2] was 0.1 to 100 nM in each case.
Regarding `[2H]C([2H])([2H])NC(=O)N1CC(CNc2cccc3nc(C(F)(F)F)nn23)(c2ccc(F)cc2)C1` [Example 103, 3-(4-Fluorophenyl)-N-(methyl-d3)-3-(((2-(trifluoromethyl)-[1,2,4]triazolo[1,5-a]pyridin-5-yl)amino)methyl)azetidine-1-carboxamide], the IC50 on MRGPRX2 [3] and on MRGPRX2 [2] was 0.1 to 100 nM throughout.
As to `CN(C)c1cc(NCC2(c3ccc(F)cc3)CN(S(N)(=O)=O)C2)n2nc(C(F)(F)F)cc2n1` [Example 105, 3-(((5-(Dimethylamino)-2-(trifluoromethyl)pyrazolo[1,5-a]pyrimidin-7-yl)amino)methyl)-3-(4-fluorophenyl)azetidine-1-sulfonamide], the 50% inhibitory concentration (IC50) on MRGPRX2 [1] lay in the range of 0.1 to 100 nM.
Turning to `[2H]C([2H])([2H])c1cc(NCC2(c3ccc(F)cc3)CN(C(=O)NCC(F)(F)F)C2)n2nc(C(F)(F)F)cc2n1` [Example 109, 3-(4-Fluorophenyl)-3-(((5-(methyl-d3)-2-(trifluoromethyl)pyrazolo[1,5-a]pyrimidin-7-yl)amino)methyl)-N-(2,2,2-trifluoroethyl)azetidine-1-carboxamide], the concentration for half-maximal inhibition (IC50) on MRGPRX2 [3] and on MRGPRX2 [2] was 0.1 to 100 nM throughout.
`[2H]C([2H])([2H])c1cc(NCC2(c3ccc(F)cc3)CN(C(=O)NCC(F)F)C2)n2nc(C(F)(F)F)cc2n1` [Example 110, N-(2,2-Difluoroethyl)-3-(4-fluorophenyl)-3-(((5-(methyl-d3)-2-(trifluoromethyl)pyrazolo[1,5-a]pyrimidin-7-yl)amino)methyl)azetidine-1-carboxamide]: the IC50 on MRGPRX2 [3] and at MRGPRX2 [2] was 0.1 to 100 nM throughout.
Turning to `[2H]C([2H])([2H])C([2H])([2H])c1cc(NCC2(c3ccc(F)cc3)CN(C(N)=O)C2)n2nc(C(F)(F)F)cc2n1` [Example 111, 3-(((5-(Ethyl-d5)-2-(trifluoromethyl)pyrazolo[1,5-a]pyrimidin-7-yl)amino)methyl)-3-(4-fluorophenyl)azetidine-1-carboxamide], the IC50 on MRGPRX2 [3] and on MRGPRX2 [2] was 0.1 to 100 nM each time.
Consider `[2H]C([2H])([2H])C([2H])([2H])c1cc(NCC2(c3ccc(F)cc3)CN(C(=O)N[C@H]3CC[C@H](O)CC3)C2)n2nc(C(F)(F)F)cc2n1` [Example 112, 3-(((5-(Ethyl-d5)-2-(trifluoromethyl)pyrazolo[1,5-a]pyrimidin-7-yl)amino)methyl)-3-(4-fluorophenyl)-N-((1r,4r)-4-hydroxycyclohexyl)azetidine-1-carboxamide], for which the IC50 on MRGPRX2 [3] and on MRGPRX2 [2] was 0.1 to 100 nM each time.
Take `[2H]C([2H])([2H])C([2H])([2H])c1cc(NCC2(c3ccc(F)cc3)CN(C(=O)N[C@@H]3CC[C@@H](O)C3)C2)n2nc(C(F)(F)F)cc2n1` [Example 113, 3-(((5-(Ethyl-d5)-2-(trifluoromethyl)pyrazolo[1,5-a]pyrimidin-7-yl)amino)methyl)-3-(4-fluorophenyl)-N-((1R,3R)-3-hydroxycyclopentyl)azetidine-1-carboxamide]: the half-inhibitory concentration (IC50) on MRGPRX2 [3] and on MRGPRX2 [2] was 0.1 to 100 nM throughout.

A word on the IC50: it is the midpoint of a concentration-inhibition curve.
